{"source": "patent US7199111B2", "about": "“Aqueous ifosfamide compositions for parenteral administration and a process for their preparations” (Bharat Serums & Vaccines Ltd., priority 2002, dated 2007)", "origin": "cited, not measured here", "key": {"[1]": {"settings": "Ifosfamide in water"}, "mouse": {"tested_on": "mouse", "settings": "intravenous administration, reported"}}, "data": [{"compound": "O=P1(NCCCl)OCCCN1CCCl", "note": "(centres unmarked) [Ifosfamide, 3-(2-chloroethyl)-2-[(2-chloroethyl)amino]-tetrahydro-2H-1,3,2-oxazaphosphorin-2-oxide]", "values": [{"measurement": "water solubility", "setting": "[1]", "value": "about 100 mg/ml"}, {"measurement": "LD50", "setting": "mouse", "value": 338, "unit": "mg/kg body weight"}]}]}
